Patent publication US20120071427A1, “NOVEL ANTIDIABETIC FUROSTANOLIC SAPONIN RICH (FSR) FRACTION FROM FENUGREEK SEEDS” (priority 2009, published 2012)

Test system: Type-1 diabetic rats
Assay: Chronic administration, plasma glucose level in Type-1 diabetic rats
Format: in vivo
Details: for PGL: INS 1 U/kg i.p. once daily; for % PGL Reduction: INS 1 U/kg i.p., vs respective vehicle control group
Experimental: Experimental studies were performed in animal models (rats) to determine anti-diabetic potential if any (Type 1 and Type 2) of the novel fraction isolated from fenugreek seeds (>70% furostanolic saponins with approximately 30% protodioscin as one of the major fractions).

With Insulin the PGL (0 d) was 527.98 ± 50.31 mg/dL, the PGL (7 d) was 218.33 ± 16.87 mg/dL and the PGL (14 d) was 260.65 ± 22.96 mg/dL. For the same substance, the “% PGL Reduction” value (7 d) was “(56.3%)”, the “% PGL Reduction” value (14 d) was “(48.2%)” and the “% PGL Reduction” value (14 d, listed as insulin) was 48.2%.
